# Experimental data reported in PMC13586173, “Synthetic cannabinoid receptor agonists inhibit the cardiac voltage-gated potassium channel hERG” (Acta Pharmacologica Sinica, 2026).
# Several values for one entry are separate records, joined by “and”; a condition that tells them apart may be missing. Identical values can stand only once. Entries after “also recorded” stand apart in the source; their conditions may differ.
# Molecular target: hERG (KV11.1) (Homo sapiens, UniProt Q12809)
# Assay: Automated planar patch-clamp (APC, QPatch II 48), voltage-ladder protocol, CHO cells stably expressing human hERG
# Settings: not given
# Source text: To assess the effect of a large set of SCRAs on hERG (see SI Table I and SI Fig. S1 for a list of the 36 included SCRAs and corresponding structures), we used the automated planar patch-clamp (APC) technique on mammalian Chinese hamster ovary (CHO) cells stably expressing human hERG. […] We employed a voltage-ladder protocol to obtain information on SCRA effects on the channel’s voltage dependence of activation (V50) and maximal conductance (Gmax) (both determined from Boltzmann fits of the instantaneous tail currents; see Methods for details).
# Stably expressing cell lines “CHO-hERG DUO” (here referred to as hERG; gene: KCNH2) and “CHO-KVLQT1/mink” (here referred to as KV7.1/KCNE1; gene: KCNQ1/KCNE1), (B’SYS GmBH, Witterswil, Switzerland) were used to study whole-cell K^+ currents on a QPatch II 48 APC system (Sophion Bioscience A/S, Ballerup, Denmark). Cell culture and passaging were performed in accordance with standard operating procedures. Cells were harvested in serum-free medium with Detachin^TM (Genlantis, CA, USA) immediately prior to experiments. For MPC on transient cell lines, CHO-K1 CCL-61 cells (ATCC, Manassas, VA, USA) were cultured in Ham’s F-12 medium supplemented with 10% fetal bovine serum (FBS) and 100 U/mL penicillin–100 µg/mL streptomycin (Gibco, Thermo Fisher Scientific, Waltham, MA, USA). Transfection was carried out using JetOPTIMUS® reagent (Polyplus, Strasbourg, France) according to the manufacturer’s protocol. Briefly, 80,000 cells were seeded per well in a 12-well plate and transfected with 300 ng of pcDNA3-GFP plasmid, 700 ng of pcDNA3-hERG plasmid with either the wild-type or mutant channels (S624A, S649A, or Y652A), and […] of JetOPTIMUS. After 8 h, cells were detached and reseeded at a density of 30,000 cells per well onto several poly-D-lysine-coated glass coverslips placed in a 12-well plate. For the CB1 receptor activity assay, the AequoScreen® recombinant Chinese hamster ovary (CHO) K1 cell line, stably expressing the human CB1 receptor (ES-110-A), was used (Revvity, Sollentuna, Sweden).
# Automated patch-clamp recordings were performed at 22 °C. Freshly harvested cell suspensions (2–3 million cells/mL) were prepared for experiments by the QPatch II 48 automated cell preparation unit. Cells were centrifuged for 150 s at 150 × g and washed twice with the extracellular recording solution. Cells were handled by the integrated pipetting robot and added to the 48 experiment sites on the planar patch-clamp consumable QPlate. Each experiment site contained an individual pair of recording electrodes and a silicon/glass biochip embedded in the flow channels. Single-cell patch recordings (n = 1 is defined as one single-cell patch) and population patch recordings (up to 10 cells per well, n = 1 is defined as one population patch) were performed for hERG and for KV7.1/KCNE1, respectively. Cells were applied, positioned and sealed to the patch holes by a mild suction protocol; whole-cell access was then achieved by a stronger suction pulse.
# The intracellular solution contained (in mM): 100 KCl, 4.3 CaCl2, 1.4 MgCl2, 25/10 KOH/EGTA, 24 KF, 10 HEPES, and 4 Mg-ATP (hERG) or 4 Na-ATP (KV7.1/KCNE1). […] The compounds were pre-diluted in DMSO, and the final concentration of DMSO (0.3%) was equal in all recording solutions to control for vehicle effects. The compounds made no contact with plastics following dilution in extracellular solution.
# An overview of experimental conditions is provided in SI Table VII, Square voltage pulses in a voltage ladder protocol were used to study current/voltage (I(V)) relationships. Each voltage protocol was first run three times in the presence of vehicle (extracellular solution supplemented with 0.3% DMSO), the 3rd serving as the baseline. Voltage protocols were repeated in the presence of 4 cumulatively rising concentrations of test compound, followed by application of vehicle for recovery.
# Chain of hERG (KV11.1) (Q12809 whole entry): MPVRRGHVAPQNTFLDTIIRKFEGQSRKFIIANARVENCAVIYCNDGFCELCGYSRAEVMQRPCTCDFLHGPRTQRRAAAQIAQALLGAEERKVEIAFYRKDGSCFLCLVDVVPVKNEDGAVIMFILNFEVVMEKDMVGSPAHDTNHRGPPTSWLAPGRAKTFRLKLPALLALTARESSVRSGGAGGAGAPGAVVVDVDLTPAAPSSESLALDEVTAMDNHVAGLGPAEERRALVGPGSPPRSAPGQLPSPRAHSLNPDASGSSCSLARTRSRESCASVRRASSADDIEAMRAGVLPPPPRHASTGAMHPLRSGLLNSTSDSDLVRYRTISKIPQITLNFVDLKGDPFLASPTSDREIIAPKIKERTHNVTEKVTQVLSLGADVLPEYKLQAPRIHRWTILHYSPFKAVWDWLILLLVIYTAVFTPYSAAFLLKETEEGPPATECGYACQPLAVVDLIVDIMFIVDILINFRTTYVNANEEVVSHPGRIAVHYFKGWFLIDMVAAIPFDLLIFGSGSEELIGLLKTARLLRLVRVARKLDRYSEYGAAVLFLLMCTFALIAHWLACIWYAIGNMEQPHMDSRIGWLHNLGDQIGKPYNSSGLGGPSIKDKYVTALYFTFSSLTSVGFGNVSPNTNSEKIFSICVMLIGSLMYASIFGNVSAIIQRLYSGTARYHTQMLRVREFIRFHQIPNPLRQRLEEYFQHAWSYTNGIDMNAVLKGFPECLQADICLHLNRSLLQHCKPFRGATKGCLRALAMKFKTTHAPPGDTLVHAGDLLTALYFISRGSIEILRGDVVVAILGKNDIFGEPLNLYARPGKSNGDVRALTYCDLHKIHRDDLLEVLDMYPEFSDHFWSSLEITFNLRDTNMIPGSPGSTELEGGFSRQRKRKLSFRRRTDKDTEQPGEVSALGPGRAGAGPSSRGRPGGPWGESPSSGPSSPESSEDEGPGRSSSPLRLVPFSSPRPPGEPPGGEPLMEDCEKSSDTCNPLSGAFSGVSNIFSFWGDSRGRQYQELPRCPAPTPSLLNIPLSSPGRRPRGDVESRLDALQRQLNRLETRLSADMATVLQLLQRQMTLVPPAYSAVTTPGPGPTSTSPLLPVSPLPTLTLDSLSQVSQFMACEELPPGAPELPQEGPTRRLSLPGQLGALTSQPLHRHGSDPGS
row,SMILES,IC50
1,O=C(NC12CC3CC(CC(C3)C1)C2)c1nn(CCCCCF)c2ccccc12 [5F-APINACA],> 100 µM
2,CC1(C)C(C(=O)c2cn(CCCCCF)c3ccccc23)C1(C)C [XLR-11],20.4 µM
3,CC(C)(NC(=O)c1nn(CCCCCF)c2ccccc12)c1ccccc1 [5F-Cumyl-PINACA],15.5 µM
4,O=C(N/N=C1\C(=O)N(CCCCCF)c2ccccc21)c1ccccc1 [5F-BZO-POXIZID],0.9 µM
5,COC(=O)C(NC(=O)c1nn(CC2CCCCC2)c2ccccc12)C(C)(C)C (stereo not drawn) [MDMB-[…]],12.4 µM

# Same assay, conditions: * Greatest efficacy achieved with a concentration between 10 and 30 µM (no fit); 1 = no reduction of Gmax
row,SMILES,"hERG channel Efficacy (max reduction in Gmax) Gmin, marked *"
1,CCCCCn1cc(C(=O)C2C(C)(C)C2(C)C)c2ccccc21 [UR-144],0.94
2,CCCCCn1nc(C(=O)NC23CC4CC(CC(C4)C2)C3)c2ccccc21 [APINACA],0.90
3,Cc1ccc(S(=O)(=O)n2nc(C(=O)NC(C)(C)c3ccccc3)c3ccccc32)cc1 [Cumyl-TsINACA],0.94

# Same assay, conditions: ? Unreliable values (fit failed QC, extrapolated)
row,SMILES,"hERG channel Efficacy (max reduction in Gmax) Gmin, marked ?"
1,O=C(NC12CC3CC(CC(C3)C1)C2)c1nn(CCCCCF)c2ccccc12 [5F-APINACA],0.00

# Same assay, conditions: APC concentration-response, 1.11 to 30 µM
row,SMILES,effect on Gmax of hERG (in words)
1,O=C(NC12CC3CC(CC(C3)C1)C2)c1nn(CCCCCF)c2ccccc12 [5F-APINACA],inhibitory effects on Gmax
2,CCCCCn1cc(C(=O)C2C(C)(C)C2(C)C)c2ccccc21 [UR-144],non-inhibitor
3,CCCCCn1nc(C(=O)NC23CC4CC(CC(C4)C2)C3)c2ccccc21 [APINACA],non-inhibitor
4,Cc1ccc(S(=O)(=O)n2nc(C(=O)NC(C)(C)c3ccccc3)c3ccccc32)cc1 [Cumyl-TsINACA],non-inhibitor
5,CC1(C)C(C(=O)c2cn(CCCCCF)c3ccccc23)C1(C)C [XLR-11],concentration-dependent inhibitory effects on Gmax
6,O=C(N/N=C1\C(=O)N(CCCCCF)c2ccccc21)c1ccccc1 [5F-BZO-POXIZID],concentration-dependent inhibitory effects on Gmax; also recorded: prominent inhibitory Gmax effects

# Same assay, conditions: best fit; 1 = no reduction of Gmax, 0 = complete reduction; APC, 22 °C
row,SMILES,hERG channel Efficacy (max reduction in Gmax) Gmin
1,CC1(C)C(C(=O)c2cn(CCCCCF)c3ccccc23)C1(C)C [XLR-11],0.54
2,CC(C)(NC(=O)c1nn(CCCCCF)c2ccccc12)c1ccccc1 [5F-Cumyl-PINACA],0.00
3,O=C(N/N=C1\C(=O)N(CCCCCF)c2ccccc21)c1ccccc1 [5F-BZO-POXIZID],0.29
4,COC(=O)C(NC(=O)c1nn(CC2CCCCC2)c2ccccc12)C(C)(C)C (stereo not drawn) [MDMB-[…]],0.60

# Molecular target: T1, human CB1 receptor (Homo sapiens, UniProt P21554)
# T1 construct: host or cells: CHO-K1 stably expressing CB1, apoaequorin and Gα16
# T1 sequence (P21554 whole entry): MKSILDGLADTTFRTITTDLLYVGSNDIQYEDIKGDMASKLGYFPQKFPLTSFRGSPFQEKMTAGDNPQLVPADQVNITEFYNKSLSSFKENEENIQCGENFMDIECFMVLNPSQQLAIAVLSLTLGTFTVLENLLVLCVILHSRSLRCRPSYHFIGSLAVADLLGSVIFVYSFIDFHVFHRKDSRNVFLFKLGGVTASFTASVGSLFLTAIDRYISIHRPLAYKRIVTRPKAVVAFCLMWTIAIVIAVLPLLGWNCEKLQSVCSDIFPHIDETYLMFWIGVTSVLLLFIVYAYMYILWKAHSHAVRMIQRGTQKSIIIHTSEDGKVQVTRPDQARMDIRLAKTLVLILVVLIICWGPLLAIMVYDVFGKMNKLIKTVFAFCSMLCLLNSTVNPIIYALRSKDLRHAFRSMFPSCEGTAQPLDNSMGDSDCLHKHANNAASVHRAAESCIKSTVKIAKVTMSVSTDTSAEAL
# Assay: AequoScreen intracellular calcium release assay, CHO-K1 cells stably expressing CB1
# Type: cell-based
# Settings: CB1 receptor Potency EC50, normalized to median EC50 of JWH-018; n ≥ 3 (JWH-030 n = 2)
row,SMILES,EC50
1,O=C(NC12CC3CC(CC(C3)C1)C2)c1nn(CCCCCF)c2ccccc12 [5F-APINACA],16.6 nM
2,CCCCCn1cc(C(=O)C2C(C)(C)C2(C)C)c2ccccc21 [UR-144],414 nM
3,CC1(C)C(C(=O)c2cn(CCCCCF)c3ccccc23)C1(C)C [XLR-11],260 nM
4,CC(C)(NC(=O)c1nn(CCCCCF)c2ccccc12)c1ccccc1 [5F-Cumyl-PINACA],2.23 nM and 2.2 nM
5,O=C(N/N=C1\C(=O)N(CCCCCF)c2ccccc21)c1ccccc1 [5F-BZO-POXIZID],193 nM
6,COC(=O)C(NC(=O)c1nn(CC2CCCCC2)c2ccccc12)C(C)(C)C (stereo not drawn) [MDMB-[…]],1.4 nM

# Same assay, conditions: normalized to maximum of JWH-018; n ≥ 3 (JWH-030 n = 2)
row,SMILES,CB1 receptor Efficacy Emax
1,O=C(NC12CC3CC(CC(C3)C1)C2)c1nn(CCCCCF)c2ccccc12 [5F-APINACA],102 % JWH-018
2,CCCCCn1cc(C(=O)C2C(C)(C)C2(C)C)c2ccccc21 [UR-144],101 % JWH-018
3,CCCCCn1nc(C(=O)NC23CC4CC(CC(C4)C2)C3)c2ccccc21 [APINACA],108 % JWH-018
4,Cc1ccc(S(=O)(=O)n2nc(C(=O)NC(C)(C)c3ccccc3)c3ccccc32)cc1 [Cumyl-TsINACA],106 % JWH-018
5,CC1(C)C(C(=O)c2cn(CCCCCF)c3ccccc23)C1(C)C [XLR-11],105 % JWH-018
6,CC(C)(NC(=O)c1nn(CCCCCF)c2ccccc12)c1ccccc1 [5F-Cumyl-PINACA],112 % JWH-018
7,O=C(N/N=C1\C(=O)N(CCCCCF)c2ccccc21)c1ccccc1 [5F-BZO-POXIZID],113 % JWH-018
8,COC(=O)C(NC(=O)c1nn(CC2CCCCC2)c2ccccc12)C(C)(C)C (stereo not drawn) [MDMB-[…]],106 % JWH-018

# Same assay, conditions: normalized to median EC50 of JWH-018; n ≥ 3 (JWH-030 n = 2); read-out: CB1 receptor Potency EC50
row,SMILES,EC50
1,CCCCCn1nc(C(=O)NC23CC4CC(CC(C4)C2)C3)c2ccccc21 [APINACA],30.4 nM

# Same assay, conditions: read-out: CB1 receptor Potency EC50
row,SMILES,EC50
1,Cc1ccc(S(=O)(=O)n2nc(C(=O)NC(C)(C)c3ccccc3)c3ccccc32)cc1 [Cumyl-TsINACA],166 nM

# Molecular target: KV7.1/KCNE1 (Homo sapiens, UniProt P51787)
# Sequence (P51787 whole entry): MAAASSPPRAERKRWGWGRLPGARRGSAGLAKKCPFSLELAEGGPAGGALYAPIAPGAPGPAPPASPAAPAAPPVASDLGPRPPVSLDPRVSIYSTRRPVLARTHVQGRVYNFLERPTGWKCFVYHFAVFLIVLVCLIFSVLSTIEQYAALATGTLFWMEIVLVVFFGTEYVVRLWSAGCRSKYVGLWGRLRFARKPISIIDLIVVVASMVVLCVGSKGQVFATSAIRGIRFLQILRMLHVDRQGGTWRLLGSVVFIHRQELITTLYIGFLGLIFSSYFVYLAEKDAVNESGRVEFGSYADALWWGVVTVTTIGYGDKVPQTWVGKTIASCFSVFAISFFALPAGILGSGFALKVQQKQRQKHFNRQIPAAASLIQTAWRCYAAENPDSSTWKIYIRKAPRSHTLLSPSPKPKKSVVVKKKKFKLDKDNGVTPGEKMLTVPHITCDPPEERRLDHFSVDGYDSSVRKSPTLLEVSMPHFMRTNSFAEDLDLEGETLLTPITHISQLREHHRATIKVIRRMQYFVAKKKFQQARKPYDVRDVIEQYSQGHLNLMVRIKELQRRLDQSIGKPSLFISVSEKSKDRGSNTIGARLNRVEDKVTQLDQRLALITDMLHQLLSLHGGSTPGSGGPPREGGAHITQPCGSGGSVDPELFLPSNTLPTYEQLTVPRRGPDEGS
# Assay: Automated patch-clamp (APC, population patch), CHO cells stably expressing human KV7.1/KCNE1
# Type: cell-based
# Settings: not given
# Experimental: Both hERG and KV7.1/KCNE1 contribute to cardiomyocyte repolarization (Fig. 1g). Inhibition of KV7.1/KCNE1 alone can be proarrhythmic. Moreover, under conditions with impaired hERG function, upregulation of KV7.1/KCNE1 has been proposed to partially compensate for the loss of hERG [38, 39]. […] To assess if SCRAs also affect KV7.1/KCNE1, we used mammalian CHO cells stably expressing human KV7.1/KCNE1. […] At 10 µM, 7 of the SCRAs caused a significant positive shift in V50 (Fig. 5e), with the largest shift induced by MDMB-[…] (ΔV50 = +10.3 ± 1.6 mV).
# Automated patch-clamp recordings were performed at 22 °C.
# For the KV7.1/KCNE1 voltage ladder protocol (SI Table VII) the solutions were present for 60 s before recording started. KV7.1/KCNE1 cells were kept at a holding voltage of −90 mV, with brief hyperpolarizing steps to −100 mV for 540 ms (to calculate ohmic leakage). […] The time between compound application and the first voltage protocol was 60 s. Time between sweeps was 15 s. The voltage ladder protocol was executed every 220 s.
# For Gmax (rel.), N was set to –1. For ΔV50, N was set to 1.
row,SMILES,IC50
1,O=C(NC12CC3CC(CC(C3)C1)C2)c1nn(CCCCCF)c2ccccc12 [5F-APINACA],35.1 µM
2,CC(C)(NC(=O)c1nn(CCCCCF)c2ccccc12)c1ccccc1 [5F-Cumyl-PINACA],43.5 µM

# Same assay, conditions: 10 µM
row,SMILES,ΔV50 of KV7.1/KCNE1
1,COC(=O)C(NC(=O)c1nn(CC2CCCCC2)c2ccccc12)C(C)(C)C (stereo not drawn) [MDMB-[…]],+10.3 ± 1.6 mV

# Same assay, conditions: 10 µM, both channels by APC
row,SMILES,Gmax effect on hERG versus KV7.1/KCNE1 (in words)
1,O=C(NC12CC3CC(CC(C3)C1)C2)c1nn(CCCCCF)c2ccccc12 [5F-APINACA],only on KV7.1/KCNE1
2,O=C(N/N=C1\C(=O)N(CCCCCF)c2ccccc21)c1ccccc1 [5F-BZO-POXIZID],effects only on hERG

# Same assay, conditions: * Greatest efficacy achieved with a concentration between 10 and 30 µM (no fit)
row,SMILES,"KV7.1/KCNE1 channel Efficacy (max reduction in Gmax) Gmin, marked *"
1,CCCCCn1cc(C(=O)C2C(C)(C)C2(C)C)c2ccccc21 [UR-144],0.92
2,CCCCCn1nc(C(=O)NC23CC4CC(CC(C4)C2)C3)c2ccccc21 [APINACA],0.88
3,Cc1ccc(S(=O)(=O)n2nc(C(=O)NC(C)(C)c3ccccc3)c3ccccc32)cc1 [Cumyl-TsINACA],1.07
4,CC1(C)C(C(=O)c2cn(CCCCCF)c3ccccc23)C1(C)C [XLR-11],0.87
5,O=C(N/N=C1\C(=O)N(CCCCCF)c2ccccc21)c1ccccc1 [5F-BZO-POXIZID],0.83
6,COC(=O)C(NC(=O)c1nn(CC2CCCCC2)c2ccccc12)C(C)(C)C (stereo not drawn) [MDMB-[…]],0.52

# Same assay, conditions: APC
row,SMILES,effect on KV7.1/KCNE1 (in words)
1,CC(C)(NC(=O)c1nn(CCCCCF)c2ccccc12)c1ccccc1 [5F-Cumyl-PINACA],well-defined concentration–response relationships for both effects

# Same assay, conditions: best fit; 1 = no reduction of Gmax, 0 = complete reduction
row,SMILES,KV7.1/KCNE1 channel Efficacy (max reduction in Gmax) Gmin
1,O=C(NC12CC3CC(CC(C3)C1)C2)c1nn(CCCCCF)c2ccccc12 [5F-APINACA],0
2,CC(C)(NC(=O)c1nn(CCCCCF)c2ccccc12)c1ccccc1 [5F-Cumyl-PINACA],0.13

# System: hERG
# Assay: not given
# Settings: cited from earlier work
row,SMILES,hERG inhibition (in words)
1,O=C(NC12CC3CC(CC(C3)C1)C2)c1nn(CCCCCF)c2ccccc12 [5F-APINACA],inhibit hERG

# Same assay, conditions: read-out: hERG IC50; HEK293 cells, 37 °C; cited from earlier work
row,SMILES,IC50
1,O=C(NC12CC3CC(CC(C3)C1)C2)c1nn(CCCCCF)c2ccccc12 [5F-APINACA],2200 nM
